Experiments:
[1] = tested on: βGK mRNA; test: βGK mRNA steady-state levels (comparative RT-PCR) in cultured pancreatic islets / insulin-producing cells; type: cell-based, rat
Procedure: Insulin-producing HIT-T15 cells were obtained from ATCC. HIT cells were reported to show glucose responsiveness at subphysiological concentrations between 0.1 and 2 mM (Sharma et al., 1995). HIT cells were grown in RPMI 1640 medium supplemented with 100 units/ml penicillin, 100 μg/ml streptomycin, 2 mM glutamine and 10% fetal calf serum at 5% CO2 and 37° C. Pancreatic islets were isolated from normally fed male Wistar rats and from mice by collagenase digestion. Isolated islets were incubated overnight at 5% CO2 and 37° C. in RPMI 1640 medium, supplemented as described above. Transfection of HIT-T15 and islet cells was performed overnight by the lipofectamine technique in RPMI 1640 medium, without serum and antibiotics. For on-line monitoring, cells were grown and transfected on 24-mm glass coverslips. Following transfection, HIT cells were cultured for 12-18 h in RPMI 1640 medium containing 0.1 mM glucose, 10% fetal calf serum and supplemented as above. Before stimulation, islets and islet cells were incubated for 2 h in RPMI 1640 medium, supplemented as above but containing 3 mM glucose. All expression constructs were prepared using the Qiagen Plasmid Maxi Kit (Qiagen), except those used to produce the adenoviruses which where purified by ultracentrifugation via a CsCI-gradient (as described in Sambrook et al, 1989).
All experiments were performed in RPMI 1640 medium, supplemented as above. Protein kinase inhibitors, antibodies or nifedipine were added to the culture medium 30 min prior to stimulation and were kept in the medium throughout stimulation. After stimulation islets, islet cells and HIT cells were cultured further at substimulatory glucose concentrations (0.1 mM for HIT cells and 3 mM for islets and islet cells). For RNA-analysis, islets and cells were harvested 60 min after start of stimulation, if not indicated otherwise. For analysis of protein kinase activities or tyrosine phosphorylation, cells were harvested immediately following stimulation.
RNA Analysis Levels of βGK mRNA were analyzed by RNase-protection assays and comparative RT-PCR. […] Quantification of the protected complexes was performed by phosphorimaging. […] Levels of μGK mRNA were analyzed by RT-PCR using primers 5′-[…]-3′(SEQ ID NO: 1) and 5′-[…]-3′(SEQ ID NO: 2) for characterizing μGK mRNA in HIT cells and primers 5′-[…]-3′(SEQ ID NO: 3) and 5′-[…]-3′(SEQ ID NO: 4) for μGK mRNA in rat and mouse pancreatic islets and islet cells. Levels of μ-actin mRNA were analyzed by RT-PCR using primers 5′-[…]-3′(SEQ ID NO: 5) and 5′-[…]-3′(SEQ ID NO: 6). […] PCR products were separated on a 6% polyacrylamide sequencing gel and analyzed by phosphorimaging. […]

[2] = tested on: PKB/c-Akt; test: PKB/c-Akt Ser473 phosphorylation and PKB activity in HIT cells; type: cell-based, hamster
Procedure: Phosphorylated PKB/c-Akt was analyzed by employing the PhosphoPlus Akt(Ser473) Antibody Kit (New England Biolabs) according to the manufacturer's instructions. Briefly, HIT cells were cultured as described above. […] Following centrifugation of the lysate for 20 min at 14,000×g and 4° C., aliquotes of the supernatant containing 200 μg protein were separated by SDS-PAGE over a 7.5% polyacrylamide gel. Proteins were electro-transferred onto PVDF-membrane (Immobilon-P, Millipore) overnight at stabilized 125 mA. Immunoblotting was performed with either rabbit polyclonal Phospho-Akt(Ser473) antibody or with rabbit polyclonal […] antibody and HRP-conjugated secondary antibodies. For detection the membrane was incubated with LumiGLO containing peroxide and exposed to X-ray film.
Analysis of PKB/Akt activity was performed employing the Akt1-PKBα e Immunoprecipitation Kinase Assay Kit (Upstate Biotech.) according to the manufacturer's instructions. Lysates of HIT cells containing 1 mg of protein were subjected to immunoprecipitation. The immunoprecipitate was used for PKB/Akt kinase assay using γ[^32P]-ATP and Akt/SGK-specific substrate peptide. Phosphorylated substrates were blotted onto phosphocellulose P81 paper and analyzed by LSC.

[3] = tested on: rat βGK promoter; test: βGK promoter-driven GFP expression in co-transfected human islet cells; type: cell-based; conditions: 5 mU/ml insulin for 5 min, sub-stimulatory glucose
Procedure: (§1) Data are presented as the ratio of fluorescence obtained at minutes 240 and 60 and represent mean values ±S.E. (n=11).
(§2) Detection of fluorescence by digital imaging fluorescence microscopy was performed as described previously (Leibiger et al., 1998a; Leibiger et al., 1998b). Briefly, transfected cells were grown on 24-mm glass coverslips. After stimulation the coverslips were placed into a perifusion chamber which was mounted on an inverted microscope (Zeiss Axiovert 135TV). Temperature was kept at 37° C. and the cells were perfused with RPMI 1640 medium. The objective lens used was a Zeiss-Fluar ×40/1.30 oil Imm Korr. Fluorescence imaging was performed with a cooled charged-coupled device camera (CH250 with KAF 1400, Photometrics, Tucson, Ariz.) connected to an imaging system (Inovision) with fluorescence excitation from a SPEX fluorolog-2 CM1T11I spectrofluorometer (Spex Industries). […]
(§3) On-line monitoring was initiated 60 min following the start of stimulation and the 60-min value of GFP- or DsRed-fluorescence was set to 1.0. Cells to be monitored were chosen randomly at minute 60 from six fields of vision and fluorescence was monitored up to minute 240. By overlaying the fluorescence and phase-contrast images, the position of cells on the coverslip could be checked. Fluorescence intensity was calculated by using the ISee-software for UNIX (Inovision Corporation).

[4] = tested on: rat insulin-I promoter; test: Insulin promoter-driven DsRed expression in co-transfected human islet cells; type: cell-based
Procedure: as §1, §2, §3

In the case of insulin, the “exogenous insulin sufficient to evoke βGK mRNA levels” value ([1]; pancreatic islets, fully supplemented culture medium, substimulatory glucose) is reported as 50 μU insulin per ml, the “time following stimulation at which PKB activation (Ser473 phosphorylation) was observed” value ([2]; 16.7 mM glucose or 5 mU insulin/ml at substimulatory glucose) is reported as 2 min and the “βGK promoter-driven GFP expression upon insulin stimulation” value [3] is reported as “up-regulation”. The “insulin promoter-driven DsRed expression upon insulin stimulation” value ([4]; 5 mU/ml insulin for 5 min, sub-stimulatory glucose) was “up-regulation”.

`CC(=O)OCOC(c1ccc2ccccc2c1)P(=O)(OCOC(C)=O)OCOC(C)=O` (stereo not shown) [HNMPA-(AM)3] was tested, and the “effect on glucose-induced activation of PKB” value ([2]; FIG. 7E, PKB activity 10 min after start of glucose stimulation) was “abolished”.

In the case of “autocamtide-2 related inhibitory peptide”, the “effect of inhibitor on insulin-stimulated βGK mRNA steady-state levels” value ([1]; 5 mU/ml insulin, 400 nM AC, FIG. 5B) is reported as “altered neither” and the “effect of inhibitor on insulin-stimulated insulin gene expression” value ([4]; 400 nM AC, 10 nM rapamycin, low concentrations: 50 nM wortmannin, 25 μM LY 294002 (FIG. 15)) is reported as “sensitive”.
